Measurements from patent US9217743B2, “Screening method utilizing thalidomide-targeting factor” (Tokyo Institute of Technology, priority 2009, dated 2015).
“Also recorded” adds a separate entry of the source.

Experiments:
CRBN Y384A = target: T1, CRBN Y384A (Homo sapiens, UniProt Q96SW2, Y384A); experiment: Binding of CRBN point mutant from 293T extracts to thalidomide-immobilized beads
T1 construct: expressed in transfected cells; host or cells: 293T
Source text: (§1) First, thalidomide-binding region was investigated by using the N-terminal and C-terminal deletion mutants. […] The present inventors investigated whether this CRBN YW/AA functionally active in the cells. The subcellular localization of this mutant was indistinguishable from that of wild-type CRBN.
(§2) Recombinant CRBN-FLAG and DDB1-V5-His proteins were expressed in the insect Sf9 cells by using the Bac-to-bac baculovirus expression system (Invitrogen) and purified using anti-FLAG M2 agarose beads (Sigma) and Ni-NTA agarose beads (Qiagen), respectively. Purified CRBN-FLAG and/or DDB1-V5-His were mixed with thalidomide-immobilized beads, and the bound proteins were eluted with an SDS sample buffer. For analysis of CRBN-deletion mutant, GST-fused CRBN and its mutants were expressed in E. coli BL21 and purified using glutathione Sepharose (GE Healthcare). CRBN mutants were overexpressed in 293T cells by transfection using Lipofectamine 2000 (Invitrogen). Subsequent binding assays were carried out as described above.

CRBN W386A = target: T2, CRBN W386A (Homo sapiens, UniProt Q96SW2, W386A); experiment: as above
T2 construct: expressed in transfected cells; host or cells: 293T
Source text: as §1, §2

shh = experiment: Whole-mount in situ hybridization of zebrafish fin buds; assay type: in vivo; conditions: thalidomide-treated 48-hpf embryos
Source text: (§3) To obtain a clue to the pathway(s) downstream of CRBN and thalidomide, the present inventors analyzed well-known key molecules in fin development. Sonic hedgehog (Shh) is expressed in the zone of polarizing activity (ZPA) and is responsible for anteroposterior patterning of the limb and fin (Cited Literature 27), whereas Fgf8 is expressed in the apical ectodermal ridge (AER) of the limb and fin and is necessary for outgrowth of the limb and fin along the proximodistal axis. […] Thus, an inhibitor of FGF8 production is a possible downstream target of thalidomide and the CRBN-containing E3 complex.
(§4) This assay was carried out in accordance with Cited Literature 41. Antisense probe for zcrbn mRNA was directed against the 5′-coding region of 513 bp. Antisense probe for zcul4a was directed against the 3′ untranslated region (3′ UTR) of 590 bp. Probes for shh and fgf8 were kindly provided by Dr. Krauss and Dr. Thisse, respectively. To increase permeability of probes, fixed embryos were incubated with PBS containing 0.1% Tween-20 and […] proteinase K for two minutes at room temperature.

fgf8a = experiment: as above; assay type: in vivo
Source text: as §3, §4

zebrafish embryos = experiment: Zebrafish embryo development, pectoral fins and otic vesicles; assay type: in vivo, zebrafish (Danio rerio)
Source text: To elucidate possible effects of thalidomide on zebrafish development, dechorionated embryos were transferred to media containing various concentrations of thalidomide. […] More specifically, formation of the endoskeletal disc of the pectoral fin was inhibited at 75 hpf (FIG. 4A), and the size of otic vesicles at 30 hpf was reduced (FIG. 4B). Retardation of pectoral fin development was also detected at 48-hpf embryos (FIGS. 5C and D). Recent studies have reported that development of pectoral fins and otic vesicles in teleosts (including zebrafish) shares common molecular mechanisms with the limb and ear development in tetrapods (Cited Literatures 24 to 26).
Thalidomide was dissolved in DMSO and added to a final concentration of 400 μM to E3 medium prewarmed to […]. Zebrafish embryos were dechorionated prior to thalidomide as follows: At 2 hpf, the embryos were incubated in E3 medium containing 2 mg/ml Protease type XIV (Sigma) for three minutes and then washed five times with the medium. After dechorionation, embryos were immediately transferred to E3 medium containing thalidomide, and observed for three days. The thalidomide-containing medium was exchanged every 12 hours.
Extracellular matrices associated with chondrocytes were stained with Alcian blue (Cited Literature 40). Zebrafish embryos were fixed in 3.7% neutral buffered formaldehyde for overnight. The next day, the embryos were washed with 100% ethanol and rehydrated with PBS. Subsequently, the embryos were incubated with a solution of 0.05% trypsin in saturated sodium tetraborate for one to three hours. Pigmentation of fish was removed by 3% hydrogen peroxide/1% potassium hydroxide solution. Stained embryos were stored in 70% glycerol-containing PBS solution.
Microinjection into one-cell stage embryos was carried out in accordance with Cited Literature 39. The present inventors used a nitrogen gas-pressure microinjector (IM 300, Narishige Co., Ltd.) for injection. Capped mRNAs were prepared in vitro using the mMESSAGE mMACHINE in vitro transcription kit (Ambion).
Zebrafish embryos at 48 hpf were anesthetized with 1% methylcellulose and 0.003% 3-amino benzoic acid ethyl ester (Sigma) and mounted on a slide glass. Then, otic vesicles of ten embryos randomly selected from each sample were photographed. The size was measured using the NIH image J software and compared to that of control. Average sizes and standard errors were calculated, and p-values were determined by the Mann-Whitney U test.

DDB1 and CRBN = target: T3, DDB1 and CRBN (Homo sapiens, UniProt Q96SW2); experiment: Affinity purification from HeLa cell extracts with thalidomide-immobilized beads, competition by free thalidomide; assay type: binding; conditions: 0.3 mM free thalidomide added to HeLa extracts before the beads
T3 construct: endogenous in cells; host or cells: HeLa
Method: To purify thalidomide-binding proteins, the present inventors performed affinity purification using FG beads, which are magnetic particles (Cited Literature 9). FR259625, a thalidomide derivative in which a carboxyl group is added was covalently immobilized on the FG beads (FIG. 6), and mixed and incubated with human HeLa cell extracts. […] The 127 and 55 kDa proteins were analyzed by mass spectrometry and identified as DDB1 and CRBN, respectively (Table 1). Identities of these proteins were also confirmed by Western blotting (immunoblotting) (FIG. 1A), and further, these proteins were isolated similarly as thalidomide binding protein from extracts of various cell types (FIG. 7). To determine whether this interaction with thalidomide is direct, the present inventors purified recombinant proteins. CRBN-FLAG, but not DDB1-V5-His, bound to thalidomide-immobilized beads (FIG. 1B).

[1] = target: T4, CRBN-containing E3 complex (Homo sapiens, UniProt Q96SW2); experiment: Autoubiquitination in live cells, 293T cells stably expressing FH-CRBN; assay type: cell-based; conditions: thalidomide 10, 30 and 100 μM, with MG132
T4 construct: expressed in transfected cells; host or cells: 293T stably expressing FH-CRBN
Method: The present inventors examined whether thalidomide would inhibit ubiquitination of the CRBN-containing E3 complex. 293T cells stably expressing FH-CRBN or FH-CRBN YW/AA were treated with MG132 and thalidomide (10, 30, and 100 μM) at similar concentration relative to the therapeutic doses used in human.
The assays were performed as described (Cited Literature 38). 293T cells stably expressing FH-CRBN or its mutant were treated with 10 μM MG132 or DMSO (vehicle) for three hours. The cells lysate were prepared using RIPA buffer containing 25 μM MG132 and 10 mM N-ethylmaleimide. FH-CRBN was immunoprecipitated and analyzed as described above. Various concentrations of thalidomide were added to cells one hour prior to MG132 treatment.

thalidomide binding of CRBN Y384A (CRBN Y384A): defective
thalidomide binding of CRBN W386A (CRBN W386A): defective
shh expression (shh): no change
fgf8a expression (fgf8a; thalidomide-treated embryos injected with zCrbn YW/AA): restored
size of otic vesicles, of the control size (zebrafish embryos; 400 μM thalidomide, uninjected embryos): 64.5%
size of otic vesicles (zebrafish embryos; 30 hpf): reduced
formation of the endoskeletal disc of the pectoral fin (zebrafish embryos; 75 hpf): inhibited
development of pectoral fins and otic vesicles (zebrafish embryos; embryos in thalidomide-containing media from 2 hpf): disturbed
size of otic vesicles, of the control size (zebrafish embryos; thalidomide, embryos overexpressing wild-type zCrbn): approximately 66%
size of otic vesicles (zebrafish embryos; thalidomide, embryos overexpressing zCrbn YW/AA): did not affect
yield of DDB1 and CRBN on the beads (DDB1 and CRBN): reduced significantly
SMILES: O=C1CCC(N2C(=O)c3ccccc3C2=O)C(=O)N1 (stereo not shown) [thalidomide]
fgf8a expression (fgf8a; thalidomide-treated 48-hpf embryos): reduced or absent; also recorded: severely reduced
autoubiquitination of wild-type CRBN [1]: potently inhibited; also recorded: suppressed
